Source: PMC6839174, “Targeting the Formyl Peptide Receptor type 1 to prevent the adhesion of ovarian cancer cells onto mesothelium and subsequent invasion” (Journal of Experimental & Clinical Cancer Research : CR, 2019)
Non-standard residues stand in square brackets, D forms with d. Aib = CC(C)(N)C(=O)O

Tested on: primary EOC cells
Test: HPMC invasion by primary EOC cells monitored in real time
Type: cell-based, human
Conditions: 10 nM RI-3; xCELLigence, slopes 18–24 h; quadruplicate representative of 3 replicates
Experimental: HPMCs (5 × 10^3 cells/well) suspended in growth medium, were seeded in E-16-well plates and allow to adhere for 18–20 h until they form a confluent monolayer, prior to seeding EOC cells (2 × 10^4 cells/well) in growth medium plus/minus 10 nM RI-3. When HPMCs are challenged with invading cells, there is a drop in electrical resistance within 2–4 h which is monitored in real-time as the Cell Index changes due to the rupture of mesothelium. The experiments were performed three times in quadruplicate.

Ac-[dY][dR][Aib][dR]-NH2 [RI-3, retro-inverso peptide, uPAR/FPR1 antagonist]
reduction of capability of EOC cells to cross the mesothelial cell monolayer: about 80%
